Data set [1] concerns iCasp9-ΔCD19-transduced MSCs. As to the kind of experiment: In vivo killing of iCasp9-transduced MSCs in SCID mice (luminescence, qPCR). More on the design: species or system mouse. Background: Real-time PCR tracks product formation cycle by cycle.
The subject of data set [2] is iCasp9M-transduced EBV-CTLs. Kind of data set: Loss of GFP-expressing iCasp9M-transduced EBV-CTLs after CID (flow cytometry). It counts as cell-based, human. For orientation: A flow cytometer gives signals particle by particle.
The subject of the next data set is iCasp9-transduced MSCs. Kind of data set: Apoptosis of undifferentiated iCasp9-transduced MSCs after CID (annexin V/7-AAD FACS). It counts as cell-based, human. As for the experimental part: Undifferentiated MSCs. The chemical inducer of dimerization (CID) (AP20187; ARIAD Pharmaceuticals, Cambridge, Mass.) was added at 50 nM to iCasp9-transduced MSCs cultures in complete medium. Apoptosis was evaluated 24 hours later by FACS analysis, after cell harvest and staining with annexin V-PE and 7-AAD in annexin V binding buffer (BD Biosciences, San Diego, Calif.). Control iCasp9-transduced MSCs were maintained in culture without exposure to CID.

Data set [3] relates to differentiated iCasp9-positive MSCs. As to the kind of experiment: Apoptosis of differentiated iCasp9-transduced MSCs after CID (TUNEL, cell density). It counts as cell-based, human. The settings on record: adipocytic differentiation, 50 nM CID, after 24 hours (from 584). As for the experimental part: Differentiated MSCs. Transduced MSCs were differentiated as presented above. At the end of the differentiation period, CID was added to the differentiation media at 50 nM. Cells were stained appropriately for the tissue being studied, as presented above, and a contrast stain (methylene azur or methylene blue) was used to evaluate the nuclear and cytoplasmic morphology. In parallel, tissues were processed for terminal deoxynucleotidyl-transferase dUTP nick end labeling (TUNEL) assay as per manufacturer instructions (In Situ Cell Death Detection Kit, Roche Diagnostics, Mannheim, Germany). For each time point, four random fields were photographed at a final magnification of 40× and the images were analyzed with ImageJ software version 1.43o (NIH, Bethesda, Md.). Cell density was calculated as the number of nuclei (DAPI positivity) per unit of surface area (in mm^2). The percentage of apoptotic cells was determined as the ratio of the number of nuclei with positive TUNEL signal (FITC positivity) to the total number of nuclei. Controls were maintained in culture without CID.

Data set [4] has as its system gene-modified allodepleted cells. As to the kind of experiment: Induction of apoptosis with AP20187 in gene-modified allodepleted cells (annexin V/7-AAD). It counts as cell-based, human. As to the method: Suicide gene functionality was assessed by adding a small molecule synthetic homodimerizer, AP20187 (Ariad Pharmaceuticals; Cambridge, Mass.), at 10 nM final concentration the day following CD19 immunomagnetic selection. Cells were stained with annexin V and 7-aminoactinomycin (7-AAD)(BD Pharmingen) at 24 hours and analyzed by flow cytometry. Cells negative for both annexin V and 7-AAD were considered viable, cells that were annexin V positive were apoptotic, and cells that were both annexin V and 7-AAD positive were necrotic. The percentage killing induced by dimerization was corrected for baseline viability as follows: Percentage killing=100%−(% Viability in AP20187-treated cells÷ % Viability in non-treated cells).
Cells were maintained in T cell medium containing 50 U/ml IL-2 until 22 days after transduction. A portion of cells was reactivated on 24-well plates coated with […] OKT3 and 1 μg/ml anti-CD28 (Clone CD28.2, BD Pharmingen, San Jose, Calif.) for 48 to 72 hours. CD19 expression and suicide gene function in both reactivated and non-reactivated cells were measured on day 24 or 25 post transduction.
In some experiments, cells also were cultured for 3 weeks post transduction and stimulated with 30G-irradiated allogeneic PBMC at a responder:stimulator ratio of 1:1. After 4 days of co-culture, a portion of cells was treated with 10 nM AP20187. Killing was measured by annexin V/7-AAD staining at 24 hours, and the effect of dimerizer on bystander virus-specific T cells was assessed by pentamer analysis on AP20187-treated and untreated cells.

Data set [5] concerns iCasp9M.IRES.GFPhigh-transduced CTLs. Kind of data set: SCID mouse-human xenograft model, elimination of transduced CTLs by CID. It counts as in vivo. The settings on record: single dose of CID (50 μg AP20187 i.p.), vs carrier. As for the experimental part:
Non-obese diabetic severe combined immunodeficient (NOD/SCID) mice, 6 to 8 weeks of age, were irradiated (250 rad) and injected subcutaneously in the right flank with 10×10^6 to 15×10^6 LCLs resuspended in Matrigel (BD Bioscience). Two weeks later mice bearing tumors that were approximately 0.5 cm in diameter were injected into the tail vein with a 1:1 mixture of nontransduced and iCasp9.I.GFPhigh-transduced EBV CTLs (total 15×10^6). At 4 to 6 hours prior and 3 days after CTL infusion, mice were injected intraperitoneally with recombinant hIL-2 (2000 U; Proleukin; Chiron). On day 4, the mice were randomly segregated in 2 groups: 1 group received CID (50 μg AP20187, intraperitoneally) and 1 group received carrier only (16.7% propanediol, 22.5% PEG400, and 1.25% Tween 80, intraperitoneally). […] By FACS analysis, the number of GFP+ cells within the gated CD3^+ population was evaluated. […]
The function of iCasp9M in vivo is graphically illustrated in FIG. 7. […] On day 3 after CTL administration, mice received either CID (50 μg AP20187; (black diamonds, n=6) or carrier only (black squares, n=5) and on day 6 the presence of human CD3+/GFP+ T cells in the tumors was analyzed. Human CD3+ T cells isolated from the tumors of a control group of mice that received only nontransduced CTLs (15×10^6 CTLs; n=4) were used as a negative control for the analysis of CD3+/GFP+ T cells within the tumors.

In data set [6] the test system is F-Casp9M.I.GFPhigh-transduced T cells. Kind of data set: annexin-V/7-AAD staining of CID-treated transduced CTLs. The format is cell-based, human. The settings on record: GFPhigh-selected, overnight 10 nM CID. As to the method:
CID (AP20187; ARIAD Pharmaceuticals) at indicated concentrations was added to transfected 293T cells or transduced CTLs. Adherent and nonadherent cells were harvested and washed with annexin binding buffer (BD Pharmingen, San Jose, Calif.). Cells were stained with annexin-V and 7-amino-actinomycin D (7-AAD) for 15 minutes according to the manufacturer's instructions (BD Pharmingen). Within 1 hour after staining, cells were analyzed by flow cytometry using CellQuest software (Becton Dickinson).

Data set [7] deals with Primary T cells from healthy donors.
Where [8] appears, read: 10 nM, 24 hours, day after CD19 selection.

Values joined by “and” are separate entries in the source; they are usually repeats but may differ in a detail not shown here. Equal values may be shown once. Some results are limits rather than exact numbers.

For `CC[C@H](C(=O)N1CCCC[C@H]1C(=O)O[C@H](CCc1ccc(OC)c(OC)c1)c1cccc(OCC(=O)NCC(CNC(=O)COc2cccc([C@@H](CCc3ccc(OC)c(OC)c3)OC(=O)[C@@H]3CCCCN3C(=O)[C@@H](CC)c3cc(OC)c(OC)c(OC)c3)c2)CN(C)C)c1)c1cc(OC)c(OC)c(OC)c1` [AP20187], in data set [1] (mouse, in vivo), the “proportion of surviving iCasp9-positive cells” value worked out at 0.7%. For the same molecule, the “killing / depletion of iCasp9-positive MSCs in vivo” value in data set [1] (two injections of 50 μg of CID 24 hours apart) was over 99%. For the same molecule, in data set [2] (F-Casp9M.I.GFPhigh, day 7), the “CID concentration sufficient to obtain the maximal deletion effect” value came out at 1 nM. Besides, the “reduction in mean fluorescence intensity of GFP in surviving CTLs” value in data set [2] (after CID) came out at 70%. The “GFP+ cells eliminated” value in data set [2] (unselected CTLs, single 10-nM dose of CID, 5 donors) is 91.3%. In the data set on iCasp9-transduced MSCs (CID 50 nM, 24 hours), the “annexin positive non-transduced control MSC (Control/CID)” value is given as 15%. Besides, in the data set on iCasp9-transduced MSCs (CID 50 nM, 24 hrs, listed as CID), the “apoptosis index of iCasp9-negative cells” value was 20±7% and 19%. Moreover, the “apoptotic death of iCasp9-positive cells” value with iCasp9-transduced MSCs (CID 50 nM, within 24 hrs) is listed as 93±1%. The “apoptotic cells among magnetically immunoselected iCasp9-CD19-positive cells” value in the data set on iCasp9-transduced MSCs (after exposure to CID) is given as “More than 95%”. For the same molecule, the cell density in data set [3] is under 14 cells/mm2. Besides, the “Killing efficiency after correction for baseline viability” value in data set [4] (setting [8]) is “about 92.9%±3.8%”. In data set [4] (setting [8]), the “viable cells after AP20187” value is “about 5.5%±2.5%”. Further, the killing efficiency in data set [4] (OKT3/aCD28-reactivated cells, day 24 or 25) is ~84.6%±8.0%; in data set [4] (day 5 post transduction), 93.1±3.5%; in data set [4] (day 24 post transduction, non-reactivated) it was 63.1±6.2% and ~63.1%±6.2%. In data set [4] (allostimulated cells, 10 nM AP20187), the “effect on virus-specific T cells (pentamer analysis)” value is given as “spares (and thereby enriches) viral reactive subpopulations”. In data set [4] (day 24 post transduction, 10 nM AP20187), the residual viability stood at 19.6±5.6%. Moreover, the values for the percentage killing result in data set [4] (large scale (n=3)) and in data set [4] (small scale (n=5)) were “about 95.4%” and “about 91.4%”, respectively. In addition, the “mean viability with AP20187” value in data set [4] (large scale CD19 selection (n=3)) is recorded as “about 3.9%”; in data set [4] (small scale CD19 selection (n=5)), “about 6.6%”. In addition, the “viability of non-transduced cells with AP20187” value in data set [4] (non-transduced cells (n=6)) is recorded as “about 86%±9%”. Moreover, in data set [4] (reactivated, CD25 negative fraction), the Killing came to 78.6±9.1%. For the same molecule, the “apoptosis / elimination of iCasp9-modified T cells after dimerizer” value in data set [4] (summary statement, listed as small-molecule dimerizer) is reported as over 90%. In addition, the “reduction in the number of human CD3+/GFP+ T cells in tumors” value in data set [5] (listed as CID) was over 99%; in data set [5] (listed as dimerizer), “more than 99%”. Besides, in data set [6], the “apoptotic (annexin-V+/7-AAD−) phenotype” value worked out at 64%. In addition, the “necrotic (annexinV+/7-AAD+) phenotype” value in data set [6] (listed as CID) is 30% and 32%.

B1: N405Qco: codon-optimized version of the modified caspase-9 polypeptide having the N405Q substitution, SEQ ID NO: 39/40 (protein)
chain: VDGFGDVGALESLRGNADLAYILSMEPCGHCLIINNVNFCRESGLRTRTGSNIDCEKLRRRFSSLHFMVEVKGDLTAKKMVLALLELARQDHGALDCCVVVILSHGCQASHLQFPGAVYGTDGCPVSVEKIVNIFNGTSCPSLGGKPKLFFIQACGGEQKDHGFEVASTSPEDESPGSNPEPDATPFQEGLRTFDQLDAISSLPTPSDIFVSYSTFPGFVSWRDPKSGSWYVETLDDIFEQWAHSEDLQSLLLRVANAVSVKGIYKQMPGCFQFLRKKLFFKTSASRA
In the case of B1, the “AP1903-dependent cytotoxicity / sensitivity in transduced T cells” value in data set [7] is on record as “very subtle effect on inducible caspase function”.

For the origin of these results see US20150328292A1, “CASPASE POLYPEPTIDES HAVING MODIFIED ACTIVITY AND USES THEREOF” (BELLICUM PHARMACEUTICALS, INC., priority 2014, published 2015).
